Reference: patent publication US20230212122A1, “MITOCHONDRIAL TARGETING COMPOUNDS FOR THE TREATMENT OF ASSOCIATED DISEASES” (The Regents of the University of Michigan, priority 2020, published 2023)

Test system: UM16 cell line
Experiment: GSEA of Bru-seq data (hallmark, KEGG, GO pathways, transcription factors)
Assay type: cell-based
Set-up: ES KEGG_MISMATCH_REPAIR / ES KEGG_HUNTINGTONS_DISEASE / ES KEGG_ALZHEIMERS_DISEASE / ES KEGG_VIBRIO_CHOLERAE_INFECTION / NES KEGG_VIBRIO_CHOLERAE_INFECTION / ES KEGG_RIBOSOME / NES KEGG_RIBOSOME / NES KEGG_RNA_POLYMERASE: dose or concentration left out as unconfirmed
From the text: Consistent with this observation, there are also massive metabolite pathways influenced including starch and sucrose metabolism, glycolysis and gluconeogenesis, purine metabolism, pyrimidine metabolism, N-glycan biosynthesis, etc.

[1] = 5 μM, 4 hours, transcription factors
[2] = GO_AMIDE_BIOSYNTHETIC_PROCESS, 5 μM, 4 hours, FDR q-val 1.55E−04
[3] = GO_CYTOSOLIC_LARGE_RIBOSOMAL_SUBUNIT, 5 μM, 4 hours, FDR q-val 0
[4] = GO_CYTOSOLIC_PART, 5 μM, 4 hours, FDR q-val 0
[5] = GO_CYTOSOLIC_RIBOSOME, 5 μM, 4 hours, FDR q-val 0
[6] = GO_ESTABLISHMENT_OF_PROTEIN_LOCALIZATION_TO_ENDOPLASMIC_RETICULUM, 5 μM, 4 hours, FDR q-val 0
[7] = GO_LARGE_RIBOSOMAL_SUBUNIT, 5 μM, 4 hours, FDR q-val 0
[8] = GO_MATURATION_OF_SSU_RRNA, 5 μM, 4 hours, FDR q-val 6.60E−05
[9] = GO_MULTI_ORGANISM_METABOLIC_PROCESS, 5 μM, 4 hours, FDR q-val 0
[10] = GO_NCRNA_METABOLIC_PROCESS, 5 μM, 4 hours, FDR q-val 0
[11] = GO_NCRNA_PROCESSING, 5 μM, 4 hours, FDR q-val 0
[12] = GO_NUCLEAR_TRANSCRIBED_MRNA_CATABOLIC_PROCESS_NONSENSE_MEDIATED_DECAY, 5 μM, 4 hours, FDR q-val 3.62E−05
[13] = GO_NUCLEOLAR_PART, 5 μM, 4 hours, FDR q-val 0
[14] = GO_PEPTIDE_METABOLIC_PROCESS, 5 μM, 4 hours, FDR q-val 3.46E−05
[15] = GO_PRERIBOSOME, 5 μM, 4 hours, FDR q-val 0
[16] = GO_PROTEIN_LOCALIZATION_TO_ENDOPLASMIC_RETICULUM, 5 μM, 4 hours, FDR q-val 0
[17] = GO_RIBONUCLEOPROTEIN_COMPLEX_BIOGENESIS, 5 μM, 4 hours, FDR q-val 0
[18] = GO_RIBOSOMAL_SMALL_SUBUNIT_BIOGENESIS, 5 μM, 4 hours, FDR q-val 0
[19] = GO_RIBOSOMAL_SUBUNIT, 5 μM, 4 hours, FDR q-val 0
[20] = GO_RIBOSOME, 5 μM, 4 hours, FDR q-val 0
[21] = GO_RIBOSOME_BIOGENESIS, 5 μM, 4 hours, FDR q-val 0
[22] = GO_RRNA_BINDING, 5 μM, 4 hours, FDR q-val 0
[23] = GO_RRNA_METABOLIC_PROCESS, 5 μM, 4 hours, FDR q-val 0
[24] = GO_STRUCTURAL_CONSTITUENT_OF_RIBOSOME, 5 μM, 4 hours, FDR q-val 0
[25] = GO_TRANSLATIONAL_INITIATION, 5 μM, 4 hours, FDR q-val 0
[26] = GO_TRNA_PROCESSING, 5 μM, 4 hours, FDR q-val 3.79E−05
[27] = transcription factor set AAAYWAACM_HFH4_01, 5 μM, 4 hours, FDR q-val 0.013
[28] = transcription factor set AP4_Q5, 5 μM, 4 hours, FDR q-val 0.043
[29] = transcription factor set ATF1_Q6, 5 μM, 4 hours, FDR q-val 0.053
[30] = transcription factor set FAC1_01, 5 μM, 4 hours, FDR q-val 0.043
[31] = transcription factor set FOXO1_01, 5 μM, 4 hours, FDR q-val 0.039
[32] = transcription factor set FOXO3——01, 5 μM, 4 hours, FDR q-val 0.015
[33] = transcription factor set FREAC2_01, 5 μM, 4 hours, FDR q-val 0.008
[34] = transcription factor set HFH3_01, 5 μM, 4 hours, FDR q-val 0.042
[35] = transcription factor set OCT_Q6, 5 μM, 4 hours, FDR q-val 0.051
[36] = transcription factor set RTAAACA_FREAC2_01, 5 μM, 4 hours, FDR q-val 0.025

Compound: CCOC(=O)[C@@H]1CCCN(S(=O)(=O)c2ccc(S(=O)(=O)N(CC)CC)cc2)C1 [DX2-201, ethyl (R)-1-((4-(N,N-diethylsulfamoyl)phenyl)sulfonyl)piperidine-3-carboxylate]
- ES E2F1_Q6 [1]: −0.355
- ES E2F1_Q6_01 [1]: −0.352
- ES E2F_03 [1]: −0.360
- ES E2F_Q6 [1]: −0.352
- ES GGAANCGGAANY_UNKNOWN [1]: −0.409
- ES MYCMAX_01 [1]: −0.425
- ES MYC_Q2 [1]: −0.429
- ES NMYC_01 [1]: −0.350
- ES SGCGSSAAA_E2F1DP2_01 [1]: −0.373
- ES YY1_Q6 [1]: −0.372
- NES E2F1_Q6 [1]: −1.568
- NES E2F1_Q6_01 [1]: −1.578
- NES E2F_03 [1]: −1.597
- NES E2F_Q6 [1]: −1.565
- NES GGAANCGGAANY_UNKNOWN [1]: −1.661
- NES MYCMAX_01 [1]: −1.853
- NES MYC_Q2 [1]: −1.792
- NES NMYC_01 [1]: −1.545
- NES SGCGSSAAA_E2F1DP2_01 [1]: −1.581
- NES YY1_Q6 [1]: −1.643
- ES KEGG_ALZHEIMERS_DISEASE (4 hours): −0.3872
- ES KEGG_HUNTINGTONS_DISEASE (4 hours): −0.4035
- ES KEGG_MISMATCH_REPAIR (4 hours): −0.6381
- ES KEGG_RIBOSOME (4 hours): −0.6266
- ES KEGG_VIBRIO_CHOLERAE_INFECTION (4 hours): −0.4430
- NES KEGG_RIBOSOME (4 hours): −2.4526
- NES KEGG_RNA_POLYMERASE (4 hours): −1.9613
- NES KEGG_VIBRIO_CHOLERAE_INFECTION (4 hours): −1.4689
- DNA repair and mismatch repair gene sets (Bru-seq) (4 hours of treatment): downregulated
- glycolysis pathway (Bru-seq) (4 hours of treatment): dramatically upregulated
- myc target gene sets and E2F target gene set (Bru-seq) (4 hours of treatment): downregulated
- oxidative phosphorylation (Bru-seq) (4 hours of treatment): significantly downregulated
- ES [2]: −0.454
- NES [2]: −2.193
- ES [3]: −0.629
- NES [3]: −2.298
- ES [4]: −0.537
- NES [4]: −2.371
- ES [5]: −0.626
- NES [5]: −2.548
- ES [6]: −0.589
- NES [6]: −2.417
- ES [7]: −0.585
- NES [7]: −2.298
- ES [8]: −0.642
- NES [8]: −2.206
- ES [9]: −0.557
- NES [9]: −2.388
- ES [10]: −0.528
- NES [10]: −2.591
- ES [11]: −0.594
- NES [11]: −2.802
- ES [12]: −0.539
- NES [12]: −2.231
- ES [13]: −0.630
- NES [13]: −2.294
- ES [14]: −0.461
- NES [14]: −2.222
- ES [15]: −0.648
- NES [15]: −2.348
- ES [16]: −0.563
- NES [16]: −2.329
- ES [17]: −0.552
- NES [17]: −2.663
- ES [18]: −0.653
- NES [18]: −2.377
- ES [19]: −0.581
- NES [19]: −2.491
- ES [20]: −0.589
- NES [20]: −2.626
- ES [21]: −0.616
- NES [21]: −2.869
- ES [22]: −0.650
- NES [22]: −2.367
- ES [23]: −0.604
- NES [23]: −2.757
- ES [24]: −0.539
- NES [24]: −2.395
- ES [25]: −0.590
- NES [25]: −2.521
- ES [26]: −0.559
- NES [26]: −2.240
- ES [27]: 0.431
- NES [27]: 1.896
- ES [28]: 0.393
- NES [28]: 1.743
- ES (transcription factor set AP4_Q6, 5 μM, 4 hours, FDR q-val 0.078): 0.377
- ES (transcription factor set AREB6_04, 5 μM, 4 hours, FDR q-val 0.098): 0.346
- ES [29]: 0.383
- NES [29]: 1.701
- ES (transcription factor set E47_01, 5 μM, 4 hours, FDR q-val 0.060): 0.363
- ES [30]: 0.394
- NES [30]: 1.751
- ES (transcription factor set FOXJ2_02, 5 μM, 4 hours, FDR q-val 0.090): 0.364
- ES [31]: 0.384
- NES [31]: 1.732
- ES (transcription factor set FOXO1_02, 5 μM, 4 hours, FDR q-val 0.007): 0.459
- ES [32]: 0.417
- NES [32]: 1.860
- ES (transcription factor set FOXO4_01, 5 μM, 4 hours, FDR q-val 0.014): 0.464
- ES (transcription factor set FOXO4_02, 5 μM, 4 hours, FDR q-val 0.007): 0.454
- ES [33]: 0.440
- NES [33]: 1.964
- ES (transcription factor set FREAC3_01, 5 μM, 4 hours, FDR q-val 0.058): 0.375
- ES [34]: 0.401
- NES [34]: 1.733
- ES (transcription factor set HNF3_Q6, 5 μM, 4 hours, FDR q-val 0.073): 0.392
- ES (transcription factor set NKX62_Q2, 5 μM, 4 hours, FDR q-val 0.058): 0.387
- ES (transcription factor set OCT1_Q5_01, 5 μM, 4 hours, FDR q-val 0.094): 0.357
- ES [35]: 0.381
- NES [35]: 1.697
- ES (transcription factor set PAX2_02, 5 μM, 4 hours, FDR q-val 0.061): 0.374
- ES [36]: 0.344
- NES [36]: 1.816
- ES (transcription factor set RYCACNNRNNRNCAG_UNKNOWN, 5 μM, 4 hours, FDR q-val 0.075): 0.462
- ES (transcription factor set TTANWNANTGGM_UNKNOWN, 5 μM, 4 hours, FDR q-val 0.051): 0.511
- ES (transcription factor set YWATTWNNRGCT_UNKNOWN, 5 μM, 4 hours, FDR q-val 0.059): 0.482
